{"source": "ChEMBL document CHEMBL6103643", "about": "“Total Synthesis of (-)- and (+)-Talaroenamine B and Diphenylene Derivatives” (J Nat Prod, 2025)", "key": {"Acetylcholinesterase": {"target": "Acetylcholinesterase (Homo sapiens, UniProt P22303)", "sequence (P22303 whole entry)": "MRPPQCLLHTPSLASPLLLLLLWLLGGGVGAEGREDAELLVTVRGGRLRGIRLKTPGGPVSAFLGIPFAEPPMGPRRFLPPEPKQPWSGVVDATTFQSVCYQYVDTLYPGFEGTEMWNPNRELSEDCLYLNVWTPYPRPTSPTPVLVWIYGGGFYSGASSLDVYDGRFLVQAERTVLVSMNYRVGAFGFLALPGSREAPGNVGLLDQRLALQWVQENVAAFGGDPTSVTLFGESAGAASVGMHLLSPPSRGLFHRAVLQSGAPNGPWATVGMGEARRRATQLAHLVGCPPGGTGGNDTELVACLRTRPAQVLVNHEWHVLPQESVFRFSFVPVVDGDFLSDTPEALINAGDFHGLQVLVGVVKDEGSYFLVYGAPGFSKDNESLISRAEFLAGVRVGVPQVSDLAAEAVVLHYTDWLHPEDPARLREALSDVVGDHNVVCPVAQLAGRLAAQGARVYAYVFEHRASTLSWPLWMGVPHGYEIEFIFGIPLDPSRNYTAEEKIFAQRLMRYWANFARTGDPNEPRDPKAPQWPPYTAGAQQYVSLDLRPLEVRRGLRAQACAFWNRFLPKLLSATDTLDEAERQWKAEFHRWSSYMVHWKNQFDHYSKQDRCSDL", "assay": "Inhibition of AChE (unknown origin) by Ellman's method"}, "K562": {"tested_on": "K562", "assay": "Cytotoxicity against human K562 cells assessed as inhibition of cell growth by MTT assay", "type": "functional, cell-based"}, "[1]": {"assay": "Cytotoxicity against human L02 cells assessed as inhibition of cell growth by SRB assay", "type": "toxicity, cell-based"}, "ASPC1": {"tested_on": "ASPC1", "assay": "Cytotoxicity against human ASPC1 cells assessed as inhibition of cell growth by SRB assay", "type": "functional, cell-based"}, "[2]": {"assay": "Cytotoxicity against human Cisplatin/etoposide-resistant NCI-H446/EP cells assessed as inhibition of cell growth by SRB assay", "type": "functional, cell-based"}, "NCI-H446": {"tested_on": "NCI-H446", "assay": "Cytotoxicity against human NCI-H446 cells assessed as inhibition of cell growth by SRB assay", "type": "functional, cell-based"}, "[3]": {"assay": "Selectivity index, ratio of IC50 for cytotoxicity against human L02 cells to IC50 for cytotoxicity against human K562 cells", "type": "toxicity, cell-based", "conditions": "L02 cells and K562 cells, read-out: Ratio IC50"}}, "note": "Where a name gives a salt, the structure may show the parent alone."}
{"smiles": "CC1=CC(=O)[C@@](C)(O)C(=O)/C1=C\\Nc1ccccc1", "values": [{"measurement": "IC50", "setting": "Acetylcholinesterase", "value": "> 100", "unit": "µM"}, {"measurement": "IC50", "setting": "K562", "value": "> 30", "unit": "µM"}, {"measurement": "IC50", "setting": "[1]", "value": "> 30", "unit": "µM"}, {"measurement": "IC50", "setting": "ASPC1", "value": "> 30", "unit": "µM"}, {"measurement": "IC50", "setting": "[2]", "value": "> 30", "unit": "µM"}, {"measurement": "IC50", "setting": "NCI-H446", "value": "> 30", "unit": "µM"}]}
{"smiles": "CC1=CC(=O)[C@](C)(O)C(=O)/C1=C\\Nc1ccc(Oc2ccc(C#N)cc2)cc1", "values": [{"measurement": "IC50", "setting": "Acetylcholinesterase", "value": 24.4, "unit": "µM"}, {"measurement": "IC50", "setting": "K562", "value": "> 30", "unit": "µM"}, {"measurement": "IC50", "setting": "[1]", "value": "> 30", "unit": "µM"}, {"measurement": "IC50", "setting": "ASPC1", "value": "> 30", "unit": "µM"}, {"measurement": "IC50", "setting": "[2]", "value": "> 30", "unit": "µM"}, {"measurement": "IC50", "setting": "NCI-H446", "value": "> 30", "unit": "µM"}]}
{"smiles": "CC1=CC(=O)[C@](C)(O)C(=O)/C1=C\\Nc1ccc(Oc2ccc(C)cc2)cc1", "values": [{"measurement": "IC50", "setting": "Acetylcholinesterase", "value": "> 100", "unit": "µM"}, {"measurement": "IC50", "setting": "K562", "value": "> 30", "unit": "µM"}, {"measurement": "IC50", "setting": "[1]", "value": 19.8, "unit": "µM"}, {"measurement": "IC50", "setting": "ASPC1", "value": "> 30", "unit": "µM"}, {"measurement": "IC50", "setting": "[2]", "value": "> 30", "unit": "µM"}, {"measurement": "IC50", "setting": "NCI-H446", "value": "> 30", "unit": "µM"}]}
{"smiles": "CC1=CC(=O)[C@@](C)(O)C(=O)/C1=C\\Nc1ccc(Oc2ccc(C#N)cc2)cc1", "values": [{"measurement": "IC50", "setting": "Acetylcholinesterase", "value": 4.7, "unit": "µM"}, {"measurement": "IC50", "setting": "K562", "value": "> 30", "unit": "µM"}, {"measurement": "IC50", "setting": "[1]", "value": "> 30", "unit": "µM"}, {"measurement": "IC50", "setting": "ASPC1", "value": "> 30", "unit": "µM"}, {"measurement": "IC50", "setting": "[2]", "value": "> 30", "unit": "µM"}, {"measurement": "IC50", "setting": "NCI-H446", "value": "> 30", "unit": "µM"}]}
{"smiles": "CC1=CC(=O)[C@@](C)(O)C(=O)/C1=C\\Nc1ccc(Oc2ccc(Cl)cc2)cc1", "values": [{"measurement": "IC50", "setting": "Acetylcholinesterase", "value": "> 100", "unit": "µM"}, {"measurement": "IC50", "setting": "K562", "value": "> 30", "unit": "µM"}, {"measurement": "IC50", "setting": "[1]", "value": "> 30", "unit": "µM"}, {"measurement": "IC50", "setting": "ASPC1", "value": "> 30", "unit": "µM"}, {"measurement": "IC50", "setting": "[2]", "value": "> 30", "unit": "µM"}, {"measurement": "IC50", "setting": "NCI-H446", "value": "> 30", "unit": "µM"}]}
{"smiles": "CC1=CC(=O)[C@](C)(O)C(=O)/C1=C\\Nc1ccc(Oc2ccc([N+](=O)[O-])cc2)cc1", "values": [{"measurement": "IC50", "setting": "Acetylcholinesterase", "value": 68.1, "unit": "µM"}, {"measurement": "IC50", "setting": "K562", "value": "> 30", "unit": "µM"}, {"measurement": "IC50", "setting": "[1]", "value": "> 30", "unit": "µM"}, {"measurement": "IC50", "setting": "ASPC1", "value": "> 30", "unit": "µM"}, {"measurement": "IC50", "setting": "[2]", "value": "> 30", "unit": "µM"}, {"measurement": "IC50", "setting": "NCI-H446", "value": "> 30", "unit": "µM"}]}
{"smiles": "CC1=CC(=O)[C@](C)(O)C(=O)/C1=C\\Nc1ccc(Oc2ccc(Cl)cc2)cc1", "values": [{"measurement": "IC50", "setting": "Acetylcholinesterase", "value": "> 100", "unit": "µM"}, {"measurement": "IC50", "setting": "K562", "value": 9.5, "unit": "µM"}, {"measurement": "IC50", "setting": "[1]", "value": 17, "unit": "µM"}, {"measurement": "IC50", "setting": "ASPC1", "value": "> 30", "unit": "µM"}, {"measurement": "IC50", "setting": "[2]", "value": "> 30", "unit": "µM"}, {"measurement": "IC50", "setting": "NCI-H446", "value": "> 30", "unit": "µM"}, {"measurement": "selectivity ratio", "setting": "[3]", "value": 1.7}]}
{"smiles": "CC1=CC(=O)[C@@](C)(O)C(=O)/C1=C\\Nc1ccc(Oc2ccc([N+](=O)[O-])cc2)cc1", "values": [{"measurement": "IC50", "setting": "Acetylcholinesterase", "value": "> 100", "unit": "µM"}, {"measurement": "IC50", "setting": "K562", "value": "> 30", "unit": "µM"}, {"measurement": "IC50", "setting": "[1]", "value": "> 30", "unit": "µM"}, {"measurement": "IC50", "setting": "ASPC1", "value": "> 30", "unit": "µM"}, {"measurement": "IC50", "setting": "[2]", "value": "> 30", "unit": "µM"}, {"measurement": "IC50", "setting": "NCI-H446", "value": "> 30", "unit": "µM"}]}
{"smiles": "CC1=CC(=O)[C@](C)(O)C(=O)/C1=C\\Nc1ccc(Oc2cccc(F)c2)cc1", "values": [{"measurement": "IC50", "setting": "Acetylcholinesterase", "value": "> 100", "unit": "µM"}, {"measurement": "IC50", "setting": "K562", "value": 15.5, "unit": "µM"}, {"measurement": "IC50", "setting": "[1]", "value": "> 30", "unit": "µM"}, {"measurement": "IC50", "setting": "ASPC1", "value": "> 30", "unit": "µM"}, {"measurement": "IC50", "setting": "[2]", "value": "> 30", "unit": "µM"}, {"measurement": "IC50", "setting": "NCI-H446", "value": "> 30", "unit": "µM"}, {"measurement": "selectivity ratio", "setting": "[3]", "value": "> 1.9"}]}
{"smiles": "CC1=CC(=O)[C@@](C)(O)C(=O)/C1=C\\Nc1ccc(Oc2cccc(F)c2)cc1", "values": [{"measurement": "IC50", "setting": "Acetylcholinesterase", "value": "> 100", "unit": "µM"}, {"measurement": "IC50", "setting": "K562", "value": "> 30", "unit": "µM"}, {"measurement": "IC50", "setting": "[1]", "value": "> 30", "unit": "µM"}, {"measurement": "IC50", "setting": "ASPC1", "value": "> 30", "unit": "µM"}, {"measurement": "IC50", "setting": "[2]", "value": "> 30", "unit": "µM"}, {"measurement": "IC50", "setting": "NCI-H446", "value": "> 30", "unit": "µM"}]}
{"smiles": "CC1=CC(=O)[C@](C)(O)C(=O)/C1=C\\Nc1ccccc1", "values": [{"measurement": "IC50", "setting": "Acetylcholinesterase", "value": "> 100", "unit": "µM"}, {"measurement": "IC50", "setting": "K562", "value": "> 30", "unit": "µM"}, {"measurement": "IC50", "setting": "[1]", "value": "> 30", "unit": "µM"}, {"measurement": "IC50", "setting": "ASPC1", "value": "> 30", "unit": "µM"}, {"measurement": "IC50", "setting": "[2]", "value": "> 30", "unit": "µM"}, {"measurement": "IC50", "setting": "NCI-H446", "value": "> 30", "unit": "µM"}]}
{"smiles": "CC1=CC(=O)[C@](C)(O)C(=O)/C1=C\\Nc1ccc(Cc2ccccc2)cc1", "values": [{"measurement": "IC50", "setting": "Acetylcholinesterase", "value": 4.5, "unit": "µM"}, {"measurement": "IC50", "setting": "K562", "value": 5.6, "unit": "µM"}, {"measurement": "IC50", "setting": "[1]", "value": 18.6, "unit": "µM"}, {"measurement": "IC50", "setting": "ASPC1", "value": "> 30", "unit": "µM"}, {"measurement": "IC50", "setting": "[2]", "value": "> 30", "unit": "µM"}, {"measurement": "IC50", "setting": "NCI-H446", "value": "> 30", "unit": "µM"}, {"measurement": "selectivity ratio", "setting": "[3]", "value": 3.3}]}
{"smiles": "CC1=CC(=O)[C@@](C)(O)C(=O)/C1=C\\Nc1ccc(Oc2ccc(C)cc2)cc1", "values": [{"measurement": "IC50", "setting": "Acetylcholinesterase", "value": "> 100", "unit": "µM"}, {"measurement": "IC50", "setting": "K562", "value": "> 30", "unit": "µM"}, {"measurement": "IC50", "setting": "[1]", "value": "> 30", "unit": "µM"}, {"measurement": "IC50", "setting": "ASPC1", "value": "> 30", "unit": "µM"}, {"measurement": "IC50", "setting": "[2]", "value": "> 30", "unit": "µM"}, {"measurement": "IC50", "setting": "NCI-H446", "value": "> 30", "unit": "µM"}]}
{"smiles": "CC1=CC(=O)[C@@](C)(O)C(=O)/C1=C\\Nc1ccc(Cc2ccccc2)cc1", "values": [{"measurement": "IC50", "setting": "Acetylcholinesterase", "value": "> 100", "unit": "µM"}, {"measurement": "IC50", "setting": "K562", "value": "> 30", "unit": "µM"}, {"measurement": "IC50", "setting": "[1]", "value": "> 30", "unit": "µM"}, {"measurement": "IC50", "setting": "ASPC1", "value": "> 30", "unit": "µM"}, {"measurement": "IC50", "setting": "[2]", "value": "> 30", "unit": "µM"}, {"measurement": "IC50", "setting": "NCI-H446", "value": "> 30", "unit": "µM"}]}
{"smiles": "COc1cccc2c1C(=O)c1c(O)c3c(c(O)c1C2=O)C[C@@](O)(C(=O)CO)C[C@@H]3O[C@H]1C[C@H](N)[C@H](O)[C@H](C)O1", "note": "[DOXORUBICIN HYDROCHLORIDE]", "values": [{"measurement": "IC50", "setting": "ASPC1", "value": 15.1, "unit": "µM"}, {"measurement": "IC50", "setting": "[2]", "value": 0.2, "unit": "µM"}, {"measurement": "IC50", "setting": "NCI-H446", "value": 0.3, "unit": "µM"}]}
